Patent publication US20060211045A1, “Fluorescently tagged ligands” (priority 2003, published 2006)

Experiments:
human A1-receptor = biological target: T1, human A1-receptor (Homo sapiens, UniProt P30542); test: Live cell confocal imaging of ligand binding to CHO-A1 cells; format: cell-based; design: expressed in transfected cells; host or cells: CHO (CHO-K1) cells: CHO-A1 and CHO-A1fos; cell membranes in A1, whole or live cells in the other assays
T1 sequence (P30542 1-326): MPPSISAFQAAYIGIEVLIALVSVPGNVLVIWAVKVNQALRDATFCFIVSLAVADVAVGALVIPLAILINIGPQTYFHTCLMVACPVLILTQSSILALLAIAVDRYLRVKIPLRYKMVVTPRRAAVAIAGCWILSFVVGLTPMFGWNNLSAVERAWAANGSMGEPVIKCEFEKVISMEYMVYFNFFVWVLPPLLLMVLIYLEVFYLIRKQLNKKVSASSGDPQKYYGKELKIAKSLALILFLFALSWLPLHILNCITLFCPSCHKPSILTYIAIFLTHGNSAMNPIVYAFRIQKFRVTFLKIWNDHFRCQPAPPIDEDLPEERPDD
Protocol: Images were acquired using a Zeiss LSM510 confocal microscope using CHO-A1 cells grown to 50% confluency on 8-well Labtek™ plates in Dulbecco's
Modification of Eagle's Medium:Ham's F12 containing 5% foetal calf serum and 2 mM glutamine. Cells were washed twice with HEPES-buffered saline prior to incubation at 22° C. with compounds as indicated.
Functional studies were performed in CHO-K1 cells expressing both the human A1-AR and a c-fos-pGL3 reporter vector (CHO-A1fos cells). […] Luciferase expression was quantified using a Luclite® kit according to manufacturer's instructions. Live cell confocal imaging was carried out on CHO-A1 cells or CHO cells expressing the A1-AR tagged on the C-terminus with a green fluorescent protein (CHO-A1Tpz).

[1] = biological target: T2, human adenosine A1 receptor (A1-AR) (Homo sapiens, UniProt P30542); test: Fluorescence correlation spectroscopy (FCS) of ligand binding on CHO-A1 cells
T2 construct: expressed in transfected cells; host or cells: CHO (CHO-K1) cells: CHO-A1 and CHO-A1fos; cell membranes in A1, whole or live cells in the other assays
T2 sequence (P30542 1-326): T1 sequence (P30542 1-326)
Excerpt: FCS is a non-invasive technique which measures fluctuations in fluorescence intensity in a confocal volume of <10^−15 l. Statistical analysis of these fluctuations gives information about the speed of diffusion (i.e. mass) and concentration of the fluorescent molecules present. Thus free ligand (fast diffusing) and bound ligand (slow diffusing) can be quantified simultaneously on a single cell. We have used FCS to measure binding of the fluorescent ligand, xanthine amine cogener-BODIPY®630/650 (XAC-BY630) to the human adenosine A1 receptor (A1-AR).
CHO cells expressing either the human A1-AR or an A1-AR-Topaz fusion were cultured on glass-bottomed 8-well plates and prepared for live cell measurement FCS measurements were made using a Zeiss Confocor 2, fitted with an Axiocam CCD camera for x-y positioning. Cells were incubated with ligands at 22° C. for the times indicated and the confocal volume was positioned on the upper membrane. Data were collected for 2×30 s, following a 15 s pre-bleach and analysed using a multi-parameter equation using Zeiss AIM software.

[2] = biological target: human adenosine A1-receptor (Homo sapiens, UniProt P30542); test: biochemical

| Compound | Binding to membrane-localised A1-ARs (confocal imaging) (human A1-receptor; CHO-A1 cells, 22° C.) | Time after which binding was detected (confocal imaging) (human A1-receptor; XAC-BY630 25-250 nM, CHO-A1 cells) | Amount of τD1 component after DPCPX preincubation ([1]; 15 nM XAC-BY630 for 30 min, DPCPX 1 μM, 30 min preincubation, n=4) | Amount of τD1 component ([1]; 15 nM XAC-BY630 for 30 min, no DPCPX, n=8) | Diffusion time τD of free ligand in buffer (FCS) ([1]; in buffer, single component, n=10) | Diffusion time τD2, very slow diffusing component (non-specific binding) ([1]; upper membrane of CHO-A1 cells, XAC-BY630 1-40 nM, 10-60 min, 61/71 cells) | Diffusion time τD1, first slow-diffusing component (receptor-bound ligand) ([1]; upper membrane of CHO-A1 cells, XAC-BY630 1-40 nM, 10-60 min, 69/71 cells) | Kb [2] | Inhibition of membrane binding of XAC-BY630 (confocal imaging) (human A1-receptor; 30 min pre-incubation with DPCPX 10^−8-10^−6M, XAC-BY630 30 min, 50 nM) |
| --- | --- | --- | --- | --- | --- | --- | --- | --- | --- |
| CCCn1c(=O)c2[nH]c(-c3ccc(OCC(=O)NCCNC(=O)CCCCCNC(=O)COc4ccc(/C=C/C5=[N+]6C(=Cc7ccc(-c8cccs8)n7[B-]6(F)F)C=C5)cc4)cc3)nc2n(CCC)c1=O [XAC-BY630, xanthine amine cogener-BODIPY®630/650] | time- and concentration-dependent manner | 5 min | 13.6±5.4 receptors/μm^2 | 51.8±14.9 receptors/μm^2 | 60±2 μs | 345 ± 41 ms | 17.4 ± 1.1 ms | 126 nM |  |
| CCCn1c(=O)c2[nH]c(C3CCCC3)nc2n(CCC)c1=O [DPCPX, 8-cyclopentyl-1,3-dipropyl xanthine, reference compound] |  |  |  |  |  |  |  |  | concentration-dependent inhibition |
